Target: T1, TPα (Homo sapiens, UniProt P21731)
T1 construct: expressed in transfected cells
T1 sequence (P21731 1-343): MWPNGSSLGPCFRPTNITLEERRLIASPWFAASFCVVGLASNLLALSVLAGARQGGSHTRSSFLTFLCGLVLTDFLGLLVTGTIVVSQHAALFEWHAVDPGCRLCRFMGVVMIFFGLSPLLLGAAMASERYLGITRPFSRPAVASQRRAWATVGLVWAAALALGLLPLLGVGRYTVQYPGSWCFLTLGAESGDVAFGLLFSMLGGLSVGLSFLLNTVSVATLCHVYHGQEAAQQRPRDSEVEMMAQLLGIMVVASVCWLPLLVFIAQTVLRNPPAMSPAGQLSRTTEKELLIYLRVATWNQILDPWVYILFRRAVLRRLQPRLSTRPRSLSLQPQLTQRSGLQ
Test: IP3 generation, HEK.TPα cells
Assay type: cell-based
Details: 1 μM U46619 2 min, washout, restimulation at 60 min
Method: Intracellular IP3 levels were measured as previously described [[33,43]]. Briefly, cells were harvested by scraping, washed twice in ice-cold PBS and resuspended at approximately 2 × 10^6 cells/200 μl in HEPES-buffered saline (HBS; […], 4.7 mM KCl, 2.2 mM CaCl2, 1.2 mM KH2PO4, 11 mM glucose, 15 mM HEPES–NaOH, pH 7.4), 10 mM LiCl (Walsh et al., 2000). […] Thereafter, cells were stimulated with 1 μM U46619 at 37 °C for 2 min. To assess agonist-mediated homologous desensitization, cells (2 × 10^6 cells/200 μl) were stimulated with 1 μM U46619 at 37 °C for 2 min (Primary stimulation); thereafter, cells were collected by centrifugation (900×g, 5 min); were washed once in 200 μl HBS, 10 mM LiCl and finally resuspended in 200 μl HBS, 10 mM LiCl and were left to recover for 60 min; thereafter, cells were re-stimulated with 1 μM U46619 at 37 °C for 2 min (secondary stimulation). All ligands and […] were pre-diluted in HBS such that 50 μl added to 200 μl of cell suspension in HBS gave the desired final concentration. To determine basal IP3 levels, an equivalent volume (50 μl) of the vehicle HBS was added instead of ligand. The level of IP3 produced was quantified by radio competition assay essentially as described. […]

Structure (SMILES): CCCCC[C@H](O)/C=C/[C@@H]1[C@@H](C/C=C\CCCC(=O)O)[C@H]2CO[C@@H]1C2 [U46619]
- IP3 generation following secondary restimulation after U46619 pre-incubation: almost completely inhibited IP3 generation
